According to ChEMBL document CHEMBL1126852 (J Med Chem, 1993):

What was measured:
[1] = target: T1, Dihydrofolate reductase (Rattus norvegicus, UniProt Q920D2)
T1 sequence (Q920D2 whole entry): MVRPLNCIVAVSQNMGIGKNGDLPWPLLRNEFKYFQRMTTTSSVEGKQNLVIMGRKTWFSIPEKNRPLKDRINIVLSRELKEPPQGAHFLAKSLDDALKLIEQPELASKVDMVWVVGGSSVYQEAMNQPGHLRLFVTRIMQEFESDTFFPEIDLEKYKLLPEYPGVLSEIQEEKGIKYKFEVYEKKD
Description: Inhibition of rat liver dihydrofolate reductase.

[2] = system: CCRF-CEM; test: Tested for cell growth inhibition in CCRF-CEM lymphoblasts; assay type: functional, cell-based; conditions: Homo sapiens
[3] = target: Dihydrofolate reductase (Lactobacillus casei, UniProt P00381); test: Tested for inhibitory activity against dihydrofolate reductase in Lactobacillus casei; set-up: species or system Lacticaseibacillus casei
[4] = target: T2, Dihydrofolate reductase (Homo sapiens, UniProt P00374); test: Tested for inhibitory activity against dihydrofolate reductase in human
T2 sequence (P00374 whole entry): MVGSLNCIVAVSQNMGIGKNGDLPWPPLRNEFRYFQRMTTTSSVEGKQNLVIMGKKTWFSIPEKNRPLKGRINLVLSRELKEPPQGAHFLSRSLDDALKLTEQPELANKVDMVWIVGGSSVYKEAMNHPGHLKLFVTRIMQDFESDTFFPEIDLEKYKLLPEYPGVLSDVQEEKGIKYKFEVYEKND

[5] = target: T3, Dihydrofolate reductase (Pneumocystis carinii, UniProt P16184); test: Tested for inhibitory activity against dihydrofolate reductase in pneumocystis carinii
T3 sequence (P16184 whole entry): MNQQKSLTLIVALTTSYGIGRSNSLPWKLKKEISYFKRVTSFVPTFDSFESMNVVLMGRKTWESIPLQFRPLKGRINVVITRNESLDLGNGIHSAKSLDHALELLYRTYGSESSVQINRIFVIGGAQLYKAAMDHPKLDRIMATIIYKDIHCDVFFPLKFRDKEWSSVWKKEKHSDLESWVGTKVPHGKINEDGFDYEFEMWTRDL

[6] = target: T4, Bifunctional dihydrofolate reductase-thymidylate synthase (Toxoplasma gondii, UniProt Q07422); test: Tested for inhibitory activity against dihydrofolate reductase in Toxoplasma gondii
T4 sequence (Q07422 whole entry): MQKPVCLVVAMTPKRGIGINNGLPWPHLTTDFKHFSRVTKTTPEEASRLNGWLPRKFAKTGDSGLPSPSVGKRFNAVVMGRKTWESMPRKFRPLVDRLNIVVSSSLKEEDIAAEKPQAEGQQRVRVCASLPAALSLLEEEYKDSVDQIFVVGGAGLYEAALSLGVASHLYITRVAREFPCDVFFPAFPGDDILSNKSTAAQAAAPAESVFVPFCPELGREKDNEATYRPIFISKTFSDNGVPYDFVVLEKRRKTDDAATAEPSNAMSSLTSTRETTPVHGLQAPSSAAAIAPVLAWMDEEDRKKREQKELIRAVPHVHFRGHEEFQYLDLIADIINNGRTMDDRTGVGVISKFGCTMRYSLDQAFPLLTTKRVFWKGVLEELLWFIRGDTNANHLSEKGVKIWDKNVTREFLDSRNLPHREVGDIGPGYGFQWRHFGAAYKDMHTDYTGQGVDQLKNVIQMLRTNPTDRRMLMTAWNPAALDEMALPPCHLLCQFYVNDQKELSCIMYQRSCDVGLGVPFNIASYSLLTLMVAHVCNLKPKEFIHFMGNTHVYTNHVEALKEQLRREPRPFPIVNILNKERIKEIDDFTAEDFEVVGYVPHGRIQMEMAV

Sequence of Dihydrofolate reductase (Lactobacillus casei, UniProt P00381) (P00381 whole entry): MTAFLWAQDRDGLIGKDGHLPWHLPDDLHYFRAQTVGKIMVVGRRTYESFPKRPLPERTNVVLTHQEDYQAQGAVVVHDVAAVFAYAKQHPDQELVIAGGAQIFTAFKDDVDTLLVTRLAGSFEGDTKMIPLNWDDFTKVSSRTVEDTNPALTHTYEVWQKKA

Structure (SMILES) | IC50 [1] [µM] | IC50 [4] [µM] | other results
Cc1c(-c2ccccc2)sc2nc(N)nc(N)c12 |  |  | IC50 [2]: 14 µM
Nc1nc(N)c2c3c(sc2n1)CCCCCCCCCC3 | 9.3 |  | IC50 [2]: 3.7 µM; IC50 [3]: 12 µM
COc1ccc(OC)c(Cc2sc3nc(N)nc(N)c3c2C)c1 | 0.4 | 0.73 | 
Nc1nc(N)c2c3c(sc2n1)CCCCCC3 |  |  | IC50 [2]: 12 µM
Nc1nc(N)c2c3c(sc2n1)CN(Cc1ccccc1)CC3 | 0.57 |  | IC50 [5]: 5.2 µM; IC50 [6]: 0.85 µM
Cc1c(Cc2ccccc2)sc2nc(N)nc(N)c12 | 14 |  | IC50 [2]: 15 µM; IC50 [3]: 1.3 µM
Nc1nc(N)c2c3c(sc2n1)CCCC3 | 3.9 |  | 
COc1ccc(OC)c(-c2sc3nc(N)nc(N)c3c2C)c1 | 0.37 | 0.75 | 
Nc1nc(N)c2c3c(sc2n1)CCCCC3 | 1.3 |  | 

Further lines, with some results ahead:

IC50 [1] [µM] | IC50 [4] [µM] | Structure (SMILES) | other results
26 |  | COc1ccc(OC)c(CCCc2csc3nc(N)nc(N)c23)c1 | 
3.1 |  | COc1ccc(OC)c(CCc2csc3nc(N)nc(N)c23)c1 | 
> 100 |  | Cc1sc2nc(N)nc(N)c2c1-c1ccc(Cl)cc1 | IC50 [3]: > 50 µM
4.6 |  | Cc1c(-c2ccc(Cl)c(Cl)c2)sc2nc(N)nc(N)c12 | IC50 [3]: 2 µM
> 37 |  | Cc1sc2nc(N)nc(N)c2c1Cc1ccccc1 | IC50 [3]: > 50 µM
51 | > 10 | COc1cc(Cc2sc3nc(N)nc(N)c3c2C)cc(OC)c1OC | 
5.9 | > 10 | COc1ccc(OC)c(CCc2sc3nc(N)nc(N)c3c2C)c1 | 
25 | > 10 | COc1cc(CCc2sc3nc(N)nc(N)c3c2C)cc(OC)c1OC | 
1.8 | > 10 | COc1cc(-c2sc3nc(N)nc(N)c3c2C)cc(OC)c1OC | 
